Laboratory results reported in patent US9169254B2, “Spiroimidazolone derivative” (Chugai Seiyaku Kabushiki Kaisha, priority 2009, dated 2015).

target: T1, human PTH1 receptor (Homo sapiens, UniProt Q03431); assay: In vitro cAMP signal activity in HKRK-B7 cells (LLC-PK1 cells overexpressing the human PTH1 receptor); type: cell-based; conditions: HKRK-B7 cells; compound at 1×10^−3 M; cAMP produced as percentage of that produced by hPTH(1-34) at 100 nM
T1 sequence (Q03431 27-593): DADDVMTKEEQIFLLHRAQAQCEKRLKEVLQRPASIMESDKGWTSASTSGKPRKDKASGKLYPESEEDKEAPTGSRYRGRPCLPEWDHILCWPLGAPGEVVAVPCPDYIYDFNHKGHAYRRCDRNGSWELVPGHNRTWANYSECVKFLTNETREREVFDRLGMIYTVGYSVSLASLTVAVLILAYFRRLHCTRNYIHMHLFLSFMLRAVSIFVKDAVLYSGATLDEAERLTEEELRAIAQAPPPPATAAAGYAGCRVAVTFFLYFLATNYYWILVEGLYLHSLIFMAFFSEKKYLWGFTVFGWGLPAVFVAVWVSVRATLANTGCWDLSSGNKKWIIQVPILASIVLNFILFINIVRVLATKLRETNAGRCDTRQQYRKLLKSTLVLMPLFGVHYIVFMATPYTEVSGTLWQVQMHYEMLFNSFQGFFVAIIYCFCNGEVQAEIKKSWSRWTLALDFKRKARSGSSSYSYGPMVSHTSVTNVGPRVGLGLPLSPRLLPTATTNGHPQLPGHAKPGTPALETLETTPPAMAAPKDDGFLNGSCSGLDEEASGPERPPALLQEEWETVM

Row | Structure (SMILES) | cAMP production activity (%)
1 | CC(C)(C)[C@H]1CC[C@H](C2=NC3(CCN(S(=O)(=O)c4cccc(Cl)c4)CC3)C(=O)N2)CC1 [Compound 26, 2-(4-tert-butyl-cyclohexyl)-8-(3-chloro-benzenesulfonyl)-1,3,8-triaza-spiro[4.5]dec-1-en-4-one] | 36
2 | O=C1NC(C2CCC(CF)CC2)=NC12CCN(S(=O)(=O)c1cccc(Cl)c1)CC2 (stereo not shown) [Compound 27, 8-(3-chloro-benzenesulfonyl)-2-(4-fluoromethyl-cyclohexyl)-1,3,8-triaza-spiro[4.5]dec-1-en-4-one] | 42
3 | O=C1NC(CC2CCCCC2)=NC12CCN(S(=O)(=O)c1cccc(Cl)c1)CC2 [Compound 28, 8-(3-chloro-benzenesulfonyl)-2-cyclohexylmethyl-1,3,8-triaza-spiro[4.5]dec-1-en-4-one] | 31
4 | O=C1NC(CCc2ccccc2)=NC12CCN(S(=O)(=O)c1cccc(Cl)c1)CC2 [Compound 29, 8-(3-chloro-benzenesulfonyl)-2-phenethyl-1,3,8-triaza-spiro[4.5]dec-1-en-4-one] | 28
5 | O=C1NC(CCC2CCCCC2)=NC12CCN(S(=O)(=O)c1cccc(Cl)c1)CC2 [Compound 30, 8-(3-chloro-benzenesulfonyl)-2-(2-cyclohexyl-ethyl)-1,3,8-triaza-spiro[4.5]dec-1-en-4-one] | 26
6 | O=C1NC(c2cccc(C(F)(F)F)c2)=NC12CCN(S(=O)(=O)c1cccc(Cl)c1)CC2 [Compound 31, 8-(3-chloro-benzenesulfonyl)-2-(3-trifluoromethyl-phenyl)-1,3,8-triaza-spiro[4.5]dec-1-en-4-one] | 41
7 | CS(=O)(=O)c1cccc(C2=NC3(CCN(S(=O)(=O)c4cccc(Cl)c4)CC3)C(=O)N2)c1 [Compound 32, 8-(3-chloro-benzenesulfonyl)-2-(3-methanesulfonyl-phenyl)-1,3,8-triaza-spiro[4.5]dec-1-en-4-one] | 26
8 | O=C1NC(C2(c3ccccc3)CCCCC2)=NC12CCN(S(=O)(=O)c1cccc(Cl)c1)CC2 [Compound 33, 8-(3-chloro-benzenesulfonyl)-2-(1-phenyl-cyclohexyl)-1,3,8-triaza-spiro[4.5]dec-1-en-4-one] | 4.4
9 | O=C1NC(CCc2cccc3ccccc23)=NC12CCN(S(=O)(=O)c1cccc(Cl)c1)CC2 [Compound 34, 8-(3-chloro-benzenesulfonyl)-2-(2-naphthalen-1-yl-ethyl)-1,3,8-triaza-spiro[4.5]dec-1-en-4-one] | 16
10 | O=C1NC(c2cccc(C(F)(F)F)c2)=NC12CCN(S(=O)(=O)CCc1cccc3ccccc13)CC2 [Compound 35, 8-(2-Naphthalen-1-yl-ethanesulfonyl)-2-(3-trifluoromethyl-phenyl)-1,3,8-triaza-spiro[4.5]dec-1-en-4-one] | 56
11 | CC(C)(C)C1=NC2(CCN(S(=O)(=O)CCc3cccc4ccccc34)CC2)C(=O)N1 [Compound 36, 2-tert-butyl-8-(2-naphthalen-1-yl-ethanesulfonyl)-1,3,8-triaza-spiro[4.5]dec-1-en-4-one] | 3.5
12 | O=C1NC(C2CCC(C(F)(F)F)CC2)=NC12CCN(S(=O)(=O)CCc1cccc3ccccc13)CC2 (stereo not shown) [Compound 37, 8-(2-naphthalen-1-yl-ethanesulfonyl)-2-(4-trifluoromethyl-cyclohexyl)-1,3,8-triaza-spiro[4.5]dec-1-en-4-one] | 54
13 | CC(C)(C)OC(=O)N1CCCC(C2=NC3(CCN(S(=O)(=O)CCc4cccc5ccccc45)CC3)C(=O)N2)C1 (stereo not shown) [Compound 38, 3-[8-(2-Naphthalen-1-yl-ethanesulfonyl)-4-oxo-1,3,8-triaza-spiro[4.5]dec-1-en-2-yl]-piperidine-1-carboxylic acid tert-butyl ester] | 52
14 | O=C1NC(C2CCCN(S(=O)(=O)CCc3cccc4ccccc34)C2)=NC12CCN(S(=O)(=O)CCc1cccc3ccccc13)CC2 (stereo not shown) [Compound 39, 8-(2-Naphthalen-1-yl-ethanesulfonyl)-2-[1-(2-naphthalen-1-yl-ethanesulfonyl)-piperidin-3-yl]-1,3,8-triaza-spiro[4.5]dec-1-en-4-one] | 25
15 | CCCS(=O)(=O)N1CCCC(C2=NC3(CCN(S(=O)(=O)c4cccc(Cl)c4)CC3)C(=O)N2)C1 (stereo not shown) [Compound 40, 8-(3-chloro-benzenesulfonyl)-2-[1-(propane-1-sulfonyl)-piperidin-3-yl]-1,3,8-triaza-spiro[4.5]dec-1-en-4-one] | 19

Results, then the compound that gave them:

Row | cAMP production activity (%) | Structure (SMILES)
16 | 21 | O=C1NC(C2CCCN(S(=O)(=O)c3ccccc3)C2)=NC12CCN(S(=O)(=O)c1cccc(Cl)c1)CC2 (stereo not shown) [Compound 41, 2-(1-benzenesulfonyl-piperidin-3-yl)-8-(3-chloro-benzenesulfonyl)-1,3,8-triaza-spiro[4.5]dec-1-en-4-one]
17 | 27 | O=C1NC(C2CCCN(S(=O)(=O)Cc3ccccc3)C2)=NC12CCN(S(=O)(=O)c1cccc(Cl)c1)CC2 (stereo not shown) [Compound 42, 8-(3-chloro-benzenesulfonyl)-2-(1-phenylmethanesulfonyl-piperidin-3-yl)-1,3,8-triaza-spiro[4.5]dec-1-en-4-one]
18 | 39 | O=C1NC(C2CCCN(S(=O)(=O)Cc3ccccc3)C2)=NC12CCN(S(=O)(=O)CCc1cccc3ccccc13)CC2 (stereo not shown) [Compound 43, 8-(2-naphthalen-1-yl-ethanesulfonyl)-2-(1-phenylmethanesulfonyl-piperidin-3-yl)-1,3,8-triaza-spiro[4.5]dec-1-en-4-one]
19 | 25 | O=C1NC(c2ccc(Cl)cc2Cl)=NC12CCN(S(=O)(=O)c1ccc(Cl)cc1)CC2 [Compound 44, 8-(4-Chloro-benzenesulfonyl)-2-(2,4-dichloro-phenyl)-1,3,8-triaza-spiro[4.5]dec-1-en-4-one]
20 | 22 | O=C1NC(c2ccc(Cl)cc2Cl)=NC12CCN(S(=O)(=O)c1ccccc1C(F)(F)F)CC2 [Compound 45, 2-(2,4-dichloro-phenyl)-8-(2-trifluoromethyl-benzenesulfonyl)-1,3,8-triaza-spiro[4.5]dec-1-en-4-one]
21 | 17 | CCCCS(=O)(=O)N1CCC2(CC1)N=C(c1ccc(Cl)cc1Cl)NC2=O [Compound 46, 8-(butane-1-sulfonyl)-2-(2,4-dichloro-phenyl)-1,3,8-triaza-spiro[4.5]dec-1-en-4-one]
22 | 45 | O=C1NC(c2ccc(Cl)cc2Cl)=NC12CCN(S(=O)(=O)CCc1cccc3ccccc13)CC2 [Compound 47, 2-(2,4-dichloro-phenyl)-8-(2-naphthalen-1-yl-ethanesulfonyl)-1,3,8-triaza-spiro[4.5]dec-1-en-4-one]
23 | 25 | O=C1NC(c2ccc(Cl)cc2Cl)=NC12CCN(S(=O)(=O)c1cccc3cccnc13)CC2 [Compound 48, 2-(2,4-Dichloro-phenyl)-8-(quinoline-8-sulfonyl)-1,3,8-triaza-spiro[4.5]dec-1-en-4-one]
24 | 29 | O=C1NC(c2ccc(Cl)cc2Cl)=NC12CCN(S(=O)(=O)c1ccc(F)c(Cl)c1)CC2 [Compound 49, 8-(3-chloro-4-fluoro-benzenesulfonyl)-2-(2,4-dichloro-phenyl)-1,3,8-triaza-spiro[4.5]dec-1-en-4-one]
25 | 26 | O=C1NC(c2ccc(Cl)cc2Cl)=NC12CCN(S(=O)(=O)c1cccc(Cl)c1)CC2 [Compound 50, 8-(3-chloro-benzenesulfonyl)-2-(2,4-dichloro-phenyl)-1,3,8-triaza-spiro[4.5]dec-1-en-4-one]
26 | 38 | COC(=O)c1ccccc1S(=O)(=O)N1CCC2(CC1)N=C(C1CCCCC1)NC2=O [Compound 51, 2-(2-Cyclohexyl-4-oxo-1,3,8-triaza-spiro[4.5]dec-1-ene-8-sulfonyl)-benzoic acid methyl ester]
27 | 23 | Cc1onc(-c2ccccc2)c1S(=O)(=O)N1CCC2(CC1)N=C(C1CCCCC1)NC2=O [Compound 52, 2-cyclohexyl-8-(5-methyl-3-phenyl-isoxazole-4-sulfonyl)-1,3,8-triaza-spiro[4.5]dec-1-en-4-one]
28 | 33 | O=C1NC(C2CCCCC2)=NC12CCN(S(=O)(=O)c1csc3ccccc13)CC2 [Compound 53, 8-(benzo[b]thiophene-3-sulfonyl)-2-cyclohexyl-1,3,8-triaza-spiro[4.5]dec-1-en-4-one]
29 | 35 | O=C1NC(C2CCCCC2)=NC12CCN(S(=O)(=O)c1cc3ccccc3s1)CC2 [Compound 54, 8-(benzo[b]thiophene-2-sulfonyl)-2-cyclohexyl-1,3,8-triaza-spiro[4.5]dec-1-en-4-one]
30 | 55 | O=C1NC(C2CCCCC2)=NC12CCN(S(=O)(=O)c1ccc(Cl)s1)CC2 [Compound 55, 8-(5-chloro-thiophene-2-sulfonyl)-2-cyclohexyl-1,3,8-triaza-spiro[4.5]dec-1-en-4-one]
31 | 55 | O=C1NC(C2CCCCC2)=NC12CCN(S(=O)(=O)c1cccs1)CC2 [Compound 56, 2-cyclohexyl-8-(thiophene-2-sulfonyl)-1,3,8-triaza-spiro[4.5]dec-1-en-4-one]
